This is an account of results in PubChem BioAssay (NCI).

Structures are written as SMILES.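 Compound exposure: 48 hours, 5 concentrations, 96-well plates. TGI marks complete inhibition of growth.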

What all share (experiment): NCI anticancer screen, dose series, 48 h
In assay [1] the test system is SNB-75 CNS.
In assay [2] the test system is HL-60(TB) leukemia.
Assay [3] deals with MDA-MB-435.
Assay [4] deals with NCI-H226 lung.
The subject of assay [5] is COLO 205 colon.
The test system of assay [6] is M14 melanoma.
The test system of assay [7] is T-47D breast.
The subject of assay [8] is HCC-2998 colon.
The test system of assay [9] is RPMI-8226 leukemia.
For assay [10], the system named is KM12 colon.

As for `O=C(O)/C=C(/CC(=O)O)C(=O)O`, the TGI in assay [1] is 33.1 µM; in assay [2], 42.9 µM; in assay [3] it was 42.6 µM; in [4], 45.6 µM; in [5] it was 38.6 µM; in [6], 44.2 µM. Besides, the TGI in assay [7] turned out to be 48.1 µM; in assay [8], 90.4 µM; in [9] it was 37 µM; in assay [10] it was 61.2 µM.
For the molecule `CCOC(=O)c1ccc(C(=O)C(C(C)=O)C(=O)OC(C)(C)C)n1C` (stereo not given), the TGI in assay [1], in [2], in assay [3], in [4], in assay [5] and in [6] was more than 100 µM each time. Moreover, the TGI in assay [7], in [8], in assay [9] and in [10] was more than 100 µM throughout.
`OC1CCCC1C(O)(C(F)(F)F)C(F)(F)F` (stereo not given): the TGI in assay [1], in [2], in assay [3], in [4], in [5] and in assay [6] was more than 100 µM throughout. For the same molecule, the TGI in assay [7], in [8], in assay [9] and in assay [10] was more than 100 µM throughout.
In the case of `Cc1cc(S(=O)(=O)Nc2nnc3c(C(F)(F)F)cc(Cl)cn23)c(S)cc1Cl`, the TGI in assay [1], in [2], in [3], in assay [4], in assay [5] and in assay [6] was more than 100 µM in each case. The TGI in [7], in [8], in assay [9] and in [10] was more than 100 µM each time.
In the case of `CCCCC[C@@H]1OCO[C@@]2(C)/C=C(C)/C=C/C(=O)O[C@H]([C@@H](C)[C@@H](O)[C@H](C)[C@@]3(O)C[C@@H](O[C@H]4C[C@@H](O)[C@H](O)[C@@H](C)O4)[C@H](C)[C@@H](C)O3)[C@@H](OC)/C=C/C=C(\C)C[C@@H]1[C@@H]2O` (stereo in doubt), the TGI is 2.64 µM in assay [1]; 0.0587 µM in assay [2]; 0.541 µM in assay [3]; 0.0468 µM in assay [4]; 0.666 µM in assay [5]; less than 0.005 µM in assay [6]. Moreover, the TGI in [7] is 9.09 µM; in assay [8] it was 0.745 µM; in [9] it was 50 µM; in assay [10], 5.36 µM.
In the case of `CC(=O)O[C@H]1C#C/C=C\C#CC[C@@H]2C(=O)N(C(=O)OC(C)(C)C)[C@@H]12`, the TGI in assay [1] is more than 72.9 µM; in [2], 25.6 µM; in [3], more than 100 µM; in assay [4] it was 84.8 µM; in assay [5] it was more than 100 µM; in [6], more than 100 µM. Further, the TGI in [7] was 88.6 µM; in [8], more than 67.5 µM; in assay [9] it was more than 75.8 µM; in assay [10], more than 86.7 µM.
